Here are results for ten molecules from ChEMBL document CHEMBL1121562, “2-Methylanthraquinone derivatives as potential bioreductive alkylating agents” (1980).

The subject of test [1] is EMT6. Briefly: Compound is measured for surviving fractions of EMT6 tumor cells treated in culture with (0.50 uM) concentration for 1 hr under aerobic condition. The class given is functional. The conditions noted are these: Mus musculus, EMT6, 1 h; read-out: ED50 (the source's name).
The subject of test [2] is EMT6. The test is described as follows: Compound is measured for surviving fractions of EMT6 tumor cells treated in culture with (0.50 uM) concentration for 1 hr under hypoxic condition. The class given is functional. The following applies: Mus musculus, EMT6, 1 h; read-out: ED50 (the source's name).
Test [3] can be described thus: Ratio of toxicity in areobic conditions to hypoxic condition of EMT6 cells. Format: functional.
The test system of test [4] is EMT6. Briefly: Percentage of EMT6 tumor cells under hypoxic condition were killed when exposed to 10 uM concentration of the compound. The class given is functional, Mus musculus.
For test [5], the system named is EMT6. The test is described as follows: Maximum effective concentration against EMT6 tumor cells uncer aerobic conditions. The class given is functional, cell-based. The following applies: Mus musculus.

A word on the Inhibition: it is the relative decrease from the control value, in per cent. A low value points to a weak effect.

As to `CO[C@@]12[C@H](COC(N)=O)C3=C(C(=O)C(C)=C(N)C3=O)N1C[C@@H]1N[C@@H]12` [MITOMYCIN], the results for the EC50 in test [1] and in test [2] were 0.7 µM and 0.001 µM, respectively. For the same molecule, the Ratio in test [3] was found to be 700.
The like results for `CS(=O)(=O)OCc1ccc2c(c1)C(=O)c1ccccc1C2=O` were, in that order, 180 µM, 69.6 µM and 2.6.
For `Cc1ccc(S(=O)(=O)OCc2ccc3c(c2)C(=O)c2ccccc2C3=O)cc1`, the Inhibition in test [4] was found to be 50%. In addition, the EC50 in test [1] is over 1000 µM; in test [2] it was 9 µM. Also, in test [3], the Ratio is over 111.
`CC(=O)OCc1ccc2c(c1)C(=O)c1ccccc1C2=O`: the EC50 in test [1] stood at 3.6 µM; in test [2] it was 9 µM. The Ratio in test [3] is 0.4.
As to `COCc1ccc2c(c1)C(=O)c1ccccc1C2=O`, the EC50 in test [1] worked out at 30 µM; in test [2], 0.6 µM. Further, the Ratio in test [3] was 50.
As to `Cc1ccc2c(c1)C(=O)c1ccccc1C2=O` [TECTOQUINONE], the EC50 in test [1] came out at 1.7 µM; in test [2], 0.54 µM. Also, in test [3], the Ratio stood at 3.2.
Turning to `O=C1c2ccccc2C(=O)c2cc(CCl)ccc21`, the values for the EC50 in test [1] and in test [2] were 0.31 µM and under 0.012 µM, respectively. Further, the Ratio in test [3] was over 26.
The like results for `COc1cccc2c1C(=O)c1c(O)c3c(c(O)c1C2=O)C[C@@](O)(C(=O)CO)C[C@@H]3O[C@H]1C[C@H](N)[C@H](O)[C@H](C)O1` [DOXORUBICIN] were, in that order, 0.012 µM, under 0.0001 µM and over 120.
For the molecule `O=C1c2ccccc2C(=O)c2cc(CO)ccc21`, the results for the EC50 in test [1] and in test [2] were 348 µM and 2.5 µM, respectively. Moreover, the Ratio in test [3] is reported as 139.
As to `CNC(=O)OCc1ccc2c(c1)C(=O)c1ccccc1C2=O`, the values for the EC50 in test [1] and in test [2] were 8.1 µM and 0.27 µM, respectively. Besides, the Concentration in test [5] is 100 µM. The Ratio in test [3] amounted to 30.
